Legend:
Bacillus sp. = test: MIC of commercial chemical disinfectants or EDTA-Tris; format: cell-based; conditions: 1 x stock: EDTA-Tris 5 mM EDTA + 50 mM Tris-HCl, Glutracide 1:200, Magnaphen-100 1:400, BioSentry 904 1:256, Synergize 1:256, hydrogen peroxide 3%
Staph. aureus = test: MIC and FIC of chemical disinfectants and EDTA-Tris; format: cell-based, Staphylococcus aureus
Description: (§1) A numerical score or Fractional Inhibitory Concentration (FIC) index was determined. The FIC index is equal to the sum of the values of FIC for the individual drugs: [formula]
(§2) An FIC index greater than 1.0 indicated an antagonistic interaction, an FIC index of 1.0 indicated addition, and an FIC index of less than or equal to 0.5 indicated synergism between the two test agents.

Ps. aeruginosa = test: as above; format: cell-based, Pseudomonas aeruginosa
Description: as §1, §2

P. mirabilis = test: as above; format: cell-based, Proteus mirabilis
Description: as §1, §2

E. coli = test: MIC of commercial chemical disinfectants or EDTA-Tris; format: cell-based; conditions: 1 x stock solutions as in footnote of Table 5
S. enteritidis = test: MIC and FIC of chemical disinfectants and EDTA-Tris; format: cell-based
Description: as §1, §2

[1] = system: S. typhimurium 6578 (parent strain); test: as above; format: cell-based
Description: as §1, §2

[2] = system: S. typhimurium Avian (avian strain); test: as above; format: cell-based
Description: as §1, §2

[3] = system: S. typhimurium DT104 (multiple antibiotic resistant strain); test: as above; format: cell-based
Description: as §1, §2

[4] = system: S. typhimurium TRC1 (mar mutant); format: cell-based
Description: as §1, §2

B subtilis = test: FIC of chemical disinfectants and EDTA-Tris; format: cell-based; conditions: chemical disinfectant and EDTA-Tris
Description: as §1, §2

E. coli Av = test: FIC of chemical disinfectants and EDTA-Tris; format: cell-based; conditions: chemical disinfectant and EDTA-Tris
Description: as §1, §2

E. coli V-1 = test: FIC of chemical disinfectants and EDTA-Tris; format: cell-based; conditions: chemical disinfectant and EDTA-Tris
Description: as §1, §2

Gram-negative bacteria = test: EDTA-Tris disinfectant combinations, summary; format: cell-based; conditions: most of the Gram-negative bacteria
Description: as §1, §2
Fractional inhibitory concentrations for EDTA-Tris disinfectant combinations (synergistic, additive, or antagonistic reactions) were determined for the test organisms. […]

Gram-positive organisms = test: EDTA-Tris disinfectant combinations, summary; format: cell-based
Description: as §1, §2

[5] = 1 x stock solutions as in footnote of Table 5
[6] = chemical disinfectant and EDTA-Tris
[7] = 1 x stock solutions as in footnote of Table 6

## OO [Hydrogen peroxide]
Bacillus sp.
  MIC: 0.05 dilution of stock solution
Staph. aureus; [5]
  MIC: 0.02 dilution of stock solution
Staph. aureus; [6]
  FIC: 1.48
  Type of reaction (FIC class): B (Antagonistic reaction (FIC > 1.0))
Ps. aeruginosa; [5]
  MIC: 0.09 dilution of stock solution
Ps. aeruginosa; [6]
  FIC: 0.37
  Type of reaction (FIC class): C (Synergistic reaction (FIC < 0.5))
P. mirabilis; [5]
  MIC: 0.19 dilution of stock solution
P. mirabilis; [6]
  FIC: 0.37
  Type of reaction (FIC class): C (Synergistic reaction (FIC < 0.5))
E. coli
  MIC: 0.12 dilution of stock solution
S. enteritidis; [7]
  MIC: 0.005 dilution of stock solution
S. enteritidis; [6]
  FIC: 0.38
  Type of reaction (FIC class): C (Synergistic reaction (FIC < 0.5))
[1]; [7]
  MIC: 0.005 dilution of stock solution
[1]; [6]
  FIC: 0.5
  Type of reaction (FIC class): D (Synergistic reaction (FIC <: 0.5))
[2]; [7]
  MIC: 0.005 dilution of stock solution
[2]; [6]
  FIC: 0.63
  Type of reaction (FIC class): C (Additive reaction (FIC :> 0.5 to < 1.0))
[3]; [7]
  MIC: 0.005 dilution of stock solution
[3]; [6]
  FIC: 0.75
  Type of reaction (FIC class): C (Additive reaction (FIC :> 0.5 to < 1.0))
[4]; [7]
  MIC: 0.005 dilution of stock solution
[4]; [6]
  FIC: 0.5
  Type of reaction (FIC class): D (Synergistic reaction (FIC <: 0.5))
B subtilis
  FIC: 1.0
  Type of reaction (FIC class): B (Additive reaction (FIC > 0.5 to < 1.0))
E. coli Av
  FIC: 0.50
  Type of reaction (FIC class): A (Synergistic reaction (FIC ˜ 0.5))
E. coli V-1
  FIC: 0.53
  Type of reaction (FIC class): C (Additive reaction (FIC > 0.5 to < 1.0))
Gram-negative bacteria
  Effect of EDTA-Tris on the antimicrobial effect of the disinfectant: potentiated (synergistic or additive)
Gram-positive organisms
  Effect of EDTA-Tris on the antimicrobial effect of the disinfectant: did not react uniformly

— patent US6518252B2, “Method of treating aquatic animals with an antimicrobial agent and chelating agent” (priority 2000, dated 2003)
